In patent US20220274979A1 (Bayer Pharma Aktiengesellschaft, priority 2018, published 2022):
Like-named read-outs stand apart in the source and are kept apart here.

Assays:
[1] = biological target: T1, Epidermal Growth Factor Receptor (EGFR) (Homo sapiens, UniProt P00533); assay: EGFR kinase assay (TR-FRET); assay type: biochemical; conditions: 10 μM ATP; read-out: EGFR kinase inhibition IC50
T1 construct: purchased Sigma-Aldrich E3641
Text: EGFR inhibitory activity of compounds of the present invention was quantified employing the TR-FRET based EGFR assay as described in the following paragraphs.
Epidermal Growth Factor Receptor (EGFR) affinity purified from human carcinoma A431 cells (Sigma-Aldrich, # E3641) was used as kinase. As substrate for the kinase reaction the biotinylated peptide biotin-Ahx-[…] (SEQ ID NO: 8, C-terminus in amid form) was used which can be purchased e.g. form the company Biosyntan GmbH (Berlin-Buch, Germany).
For the assay 50 nL of a 100 fold concentrated solution of the test compound in DMSO was pipetted into a black low volume 384 well microtiter plate (Greiner Bio-One, Frickenhausen, Germany), 2 μL of a solution of EGFR in aqueous assay buffer [50 mM Hepes/HCl pH 7.0, 1 mM MgCl2, 5 mM MnCl2, 0.5 mM activated sodium ortho-vanadate, 0.005% (v/v) Tween-20]were added and the mixture was incubated for […] at 22° C. to allow pre-binding of the test compounds to the enzyme before the start of the kinase reaction. Then the kinase reaction was started by the addition of 3 μL of a solution of adenosine-tri-phosphate (ATP, 16.7 μM=>final conc. in the 5 μL assay volume is 10 μM) and substrate (1.67 μM =>final conc. in the 5 μL assay volume is 1μM) in assay buffer and the resulting mixture was incubated for a reaction time of […] at 22° C. The concentration of EGFR was adjusted depending of the activity of the enzyme lot and was chosen appropriate to have the assay in the linear range, typical concentration were about 3 U/ml. The reaction was stopped by the addition of 5 μl of a solution of HTRF detection reagents (0.1 μM streptavidine-XL665 [Cis Biointernational]and 1 nM PT66-Tb-Cryptate, an terbium-cryptate labelled anti-phospho-tyrosine antibody from Cis Biointernational [instead of the PT66-Tb-cryptate PT66-Eu-Chelate from Perkin Elmer can also be used]) in an aqueous EDTA-solution (80 mM EDTA, 0.2% (w/v) bovine serum albumin in 50 mM HEPES pH 7.5).
The resulting mixture was incubated 1 h at 22° C. to allow the binding of the biotinylated phosphorylated peptide to the streptavidine-XL665 and the PT66-Eu-Chelate. Subsequently the amount of phosphorylated substrate was evaluated by measurement of the resonance energy transfer from the PT66-Tb-Cryptate to the streptavidine-XL665. Therefore, the fluorescence emissions at 620 nm and 665 nm after excitation at 337 nm were measured in a HTRF reader, e.g. a Pherastar (BMG Labtechnologies, Offenburg, Germany) or a Viewlux (Perkin-Elmer). The ratio of the emissions at 665 nm and at […] was taken as the measure for the amount of phosphorylated substrate.

[2] = biological target: T2, hK-RasG12C - hSOS1 interaction (Homo sapiens, UniProt Q07889); assay: Biochemical Assay 1: hK-RasG12C interaction assay with hSOS1 (HTRF); assay type: binding; conditions: for inhibition at 20 µM: read-out: Assay 1 (hKRAS, hSOS Interaction) activity (expressed as IC50, or as % inhibition at 20 μM)
T2 construct: hSOS1 (amino acid 564-1049); made in house; host or cells: E. coli BL21 (DE3)
T2 sequence (Q07889 with tags, fused parts or gaps): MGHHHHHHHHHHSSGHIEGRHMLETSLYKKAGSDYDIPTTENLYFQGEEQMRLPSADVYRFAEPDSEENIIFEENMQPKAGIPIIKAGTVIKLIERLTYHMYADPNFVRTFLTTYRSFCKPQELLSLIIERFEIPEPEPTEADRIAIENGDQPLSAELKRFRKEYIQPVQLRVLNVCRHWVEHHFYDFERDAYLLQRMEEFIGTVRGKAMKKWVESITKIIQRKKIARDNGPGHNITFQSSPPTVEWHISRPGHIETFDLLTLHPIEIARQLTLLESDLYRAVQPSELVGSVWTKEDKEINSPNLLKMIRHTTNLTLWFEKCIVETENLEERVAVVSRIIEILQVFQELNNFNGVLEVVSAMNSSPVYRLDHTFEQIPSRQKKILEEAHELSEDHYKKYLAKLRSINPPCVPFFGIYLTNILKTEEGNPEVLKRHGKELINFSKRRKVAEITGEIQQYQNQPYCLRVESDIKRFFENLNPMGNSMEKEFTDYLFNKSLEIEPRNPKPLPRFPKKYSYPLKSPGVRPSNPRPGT
Description: Biochemical Assay 1: hK-RasG12C Interaction Assay with hSOS1
This assay quantifies the equilibrium interaction of human SOS1 (hSOS1) with human K-Ras^G12C (hK-RasG12C). Detection of the interaction is achieved by measuring homogenous time-resolved fluorescence resonance energy transfer (HTRF) from antiGST-Europium (FRET donor) bound to GST-K-RasG12C to anti-6His-XL665 bound to His-tagged hSOS1 (FRET-acceptor).
The assay buffer contained 5 mM HEPES pH 7.4 (Applichem), 150 mM NaCl (Sigma), 10 mM EDTA (Promega), 1 mM DTT (Thermofisher), 0.05% BSA Fraction V, pH 7.0, (ICN Biomedicals), 0.0025% (v/v) Igepal (Sigma) and 100 mM KF (FLUKA).
Concentrations of protein batches used were optimized to be within the linear range of the HTRF signal. A Ras working solution was prepared in assay buffer containing typically 10 nM GST-hK-RasG12C and 2 nM antiGST-Eu(K) (Cisbio, France). A SOS1 working solution was prepared in assay buffer containing typically 20 nM His-hSOS1 and 10 nM anti-6His-XL665 (Cisbio, France). An inhibitor control solution was prepared in assay buffer containing 10 nM anti-6His-XL665 without hSOS1.
Fifty nl of a 100-fold concentrated solution of the test compound in DMSO were transferred into a black microtiter test plate (384 or 1536, Greiner Bio-One, Germany) For this, either a Hummingbird liquid handler (Digilab, Mass., USA) or an Echo acoustic system (Labcyte, Calif., USA) was used.
All steps of the assay were performed at 20° C. A volume of 2.5 μl of the Ras working solution was added to all wells of the test plate using a Multidrop dispenser (Thermo Labsystems). After […] preincubation, 2.5 μl of the SOS1 working solution were added to all wells except for those wells at the side of the test plate that were subsequently filled with 2.5 μl of the inhibitor control solution. After […] incubation the fluorescence was measured with a Pherastar (BMG, Germany) using the HTRF module (excitation 337 nm, emission 1:620 nm, emission 2:665 nm).
IC50 values were calculated by 4-Parameter fitting using a commercial software package (Genedata Screener, Switzerland).

T1 sequence (P00533 25-1210): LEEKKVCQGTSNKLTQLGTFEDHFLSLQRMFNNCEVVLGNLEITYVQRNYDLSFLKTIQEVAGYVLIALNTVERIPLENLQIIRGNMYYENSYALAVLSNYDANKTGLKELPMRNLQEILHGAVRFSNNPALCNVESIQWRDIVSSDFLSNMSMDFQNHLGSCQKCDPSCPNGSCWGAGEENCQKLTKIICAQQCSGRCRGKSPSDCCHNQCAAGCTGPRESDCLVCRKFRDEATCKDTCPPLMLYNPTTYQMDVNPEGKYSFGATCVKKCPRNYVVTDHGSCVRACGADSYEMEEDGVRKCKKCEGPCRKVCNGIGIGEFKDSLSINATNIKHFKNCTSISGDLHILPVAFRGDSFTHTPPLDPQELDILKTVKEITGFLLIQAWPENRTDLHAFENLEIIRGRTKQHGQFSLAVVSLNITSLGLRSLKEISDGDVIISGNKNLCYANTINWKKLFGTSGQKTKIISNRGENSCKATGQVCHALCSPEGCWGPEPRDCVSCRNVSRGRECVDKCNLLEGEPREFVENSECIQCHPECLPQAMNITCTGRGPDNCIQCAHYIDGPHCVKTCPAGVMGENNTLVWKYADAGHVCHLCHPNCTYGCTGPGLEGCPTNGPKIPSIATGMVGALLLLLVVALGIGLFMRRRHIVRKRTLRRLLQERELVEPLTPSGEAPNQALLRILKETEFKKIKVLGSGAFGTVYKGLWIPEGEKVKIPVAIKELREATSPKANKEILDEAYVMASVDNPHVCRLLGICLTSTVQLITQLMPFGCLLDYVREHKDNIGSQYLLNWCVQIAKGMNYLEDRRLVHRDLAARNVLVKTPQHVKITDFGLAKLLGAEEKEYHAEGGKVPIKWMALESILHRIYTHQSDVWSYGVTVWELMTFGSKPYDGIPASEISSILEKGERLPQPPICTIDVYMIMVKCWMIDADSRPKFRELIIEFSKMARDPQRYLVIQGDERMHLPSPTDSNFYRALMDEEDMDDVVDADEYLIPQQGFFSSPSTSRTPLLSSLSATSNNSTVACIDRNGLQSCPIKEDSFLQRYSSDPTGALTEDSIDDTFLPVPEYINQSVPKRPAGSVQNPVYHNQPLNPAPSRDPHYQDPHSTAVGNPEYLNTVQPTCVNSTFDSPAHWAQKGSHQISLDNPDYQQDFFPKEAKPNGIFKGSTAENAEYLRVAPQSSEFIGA

SMILES	IC50 [1] [µM]	IC50 ([2]; values expressed as IC50) [µM]	IC50 [2] [µM]	inhibition at 20 µM [2] [%]
CC(=O)NC1CCN(c2cc3c(N[C@H](C)c4cccc(Br)c4)nc(C)nc3cn2)C1 (mixture of isomers) [Example 42, N-[1-(4-{[(1R)-1-(3-bromophenyl)ethyl]amino}-2-methylpyrido[3,4-d]pyrimidin-6-yl)pyrrolidin-3-yl]acetamide]	> 20	0.187		
Cc1nc(NC(C)c2ccc(-c3ccccc3CN(C)C)s2)c2cc(C3CCN(C)C3=O)ncc2n1 (mixture of isomers) [Example 69, 3-(4-{[1-(5-{2-[(dimethylamino)methyl]phenyl}thiophen-2-yl)ethyl]amino}-2-methylpyrido[3,4-d]pyrimidin-6-yl)-1-methylpyrrolidin-2-one]	> 20	0.0626		
Cc1nc(NC(C)c2ccc(-c3ccccc3CN(C)C)s2)c2cc(C3(O)CCN(C)C3=O)ncc2n1 (mixture of isomers) [Example 85, 3-(4-{[1-(5-{2-[(dimethylamino)methyl]phenyl}thiophen-2-yl)ethyl]amino}-2-methylpyrido[3,4-d]pyrimidin-6-yl)-3-hydroxy-1-methylpyrrolidin-2-one]	> 20		0.0834	
CCOc1cc2c(NC(C)c3cccc4sccc34)nc(C)nc2cn1 (centres unmarked) [Example 3, N-[1-(1-benzothiophen-4-yl)ethyl]-6-ethoxy-2-methylpyrido[3,4-d]pyrimidin-4-amine]	> 20	0.215		
COc1cc2c(NC(C)c3cccc4sccc34)nc(C)nc2cn1 (centres unmarked) [Example 4, N-[1-(1-benzothiophen-4-yl)ethyl]-6-methoxy-2-methylpyrido[3,4-d]pyrimidin-4-amine]	> 20	0.355		
CCOc1cc2c(N[C@H](C)c3cccc(Br)c3)nc(C)nc2cn1 [Example 5, N-[(1R)-1-(3-bromophenyl)ethyl]-6-ethoxy-2-methylpyrido[3,4-d]pyrimidin-4-amine]	> 20	0.491		
CCOc1cc2c(N[C@H](C)c3cccc(Cl)c3)nc(C)nc2cn1 [Example 6]	> 20	0.393		
CCOc1cc2c(N[C@H](C)c3cccc(S(C)(=O)=O)c3)nc(C)nc2cn1 [Example 7, 6-ethoxy-2-methyl-N-{(1R)-1-[3-(methylsulfonyl)phenyl]ethyl}pyrido[3,4-d]pyrimidin-4-amine]	> 20	0.633		
COc1cc2c(N[C@H](C)c3ccc(F)c(Cl)c3)nc(C)nc2cn1 [Example 8]	> 20	5.49		
Cc1nc(N[C@H](C)c2ccc(F)cc2)c2cc(F)ncc2n1 [Example 9]	> 20			54
Cc1nc(N[C@H](C)c2ccc(F)cc2)c2cc(OCC3CCOCC3)ncc2n1 [Example 11, N-[1R)-1-(4-fluorophenypethyl]-2-methyl-6-(tetrahydro-2H-pyran-4-ylmethoxy)-pyrido[3,4-d]pyrimidin-4-amine]	> 20	1.79		
COc1cc2c(N[C@H](C)c3ccc(F)c(C4CC4)c3)nc(C)nc2cn1 [Example 12]	> 20	5.84		
CCOc1cc2c(N[C@H](C)c3ccc(Br)cc3)nc(C)nc2cn1 [Example 13, N-[(1R)-1-(4-bromophenyl)ethyl]-6-ethoxy-2-methylpyrido[3,4-d]pyrimidin-4-amine]	> 20	1.22		
COc1cc2c(NC(C)c3cccc4c3cnn4C)nc(C)nc2cn1 (centres unmarked) [Example 14, 6-methoxy-2-methyl-N-[1-(1-methyl-1H-indazol-4-yl)ethyl]pyrido[3,4-d]pyrimidin-4-amine]	> 20	1.65		
Cc1nc(N[C@H](C)c2ccc(F)cc2)c2cc(OC(C)C)ncc2n1 [Example 15]	> 20	1.48		
COc1cc2c(NC(C)c3cccc4nn(C)cc34)nc(C)nc2cn1 (centres unmarked) [Example 17, 6-methoxy-2-methyl-N-[1-(2-methyl-2H-indazol-4-yl)ethyl]pyrido[3,4-d]pyrimidin-4-amine]	> 20	9.19		
CCOc1cc2c(N[C@H](C)c3ccc(C#N)cc3)nc(C)nc2cn1 [Example 18, 4-{(1R)-1-[(6-ethoxy-2-methylpyrido[3,4-d]pyrimidin-4-yl)amino]ethyl}benzonitrile]	> 20	1.11		
Cc1nc(N[C@H](C)c2cccc(Br)c2)c2nc(OCc3ccccc3)ncc2n1 [Example 20, 6-(benzyloxy)-N-[(1R)-1-(3-bromophenyl)ethyl]-2-methylpyrimido[5,4-d]pyrimidin-4-amine]	> 20			30
Cc1nc(N[C@H](C)c2cccc(Br)c2)c2nc(N(C)C)ncc2n1 [Example 21]	> 20			26.3
Cc1nc(N[C@H](C)c2cccc(Br)c2)c2nc(N3CCOCC3)ncc2n1 [Example 22, N-[(1R)-1-(3-bromophenyl)ethyl]-2-methyl-6-(morpholin-4-yl)pyrimido[5,4-d]pyrimidin-4-amine]	> 20	1.62		
CCOc1ncc2nc(C)nc(N[C@H](C)c3cccc(Br)c3)c2n1 [Example 23, N-[(1R)-1-(3-bromophenyl)ethyl]-6-ethoxy-2-methylpyrimido[5,4-d]pyrimidin-4-amine]	> 20	4.35		
COc1ncc2nc(C)nc(N[C@H](C)c3cccc(Br)c3)c2n1 [Example 24, N-[(1R)-1-(3-bromophenyl)ethyl]-6-methoxy-2-methylpyrimido[5,4-d]pyrimidin-4-amine]	> 20	9.41		
